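Growth conditions: 96-well plates. Treatment: test compound, 48 hours, 5 concentrations. Analysis: linear interpolation between bracketing concentrations; unreached endpoints set to highest concentration. The concentration for 50% growth inhibition is given as GI50. Definition used: TGI = concentration required for complete inhibition of growth.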
Assays:
Experiment in all cases: NCI-60 cell line screen, 48 h
ACHN renal = test system: ACHN renal
TK-10 renal = test system: TK-10 renal
NCI/ADR-RES ovarian = test system: NCI/ADR-RES ovarian
MALME-3M melanoma = test system: MALME-3M melanoma
EKVX NSCLC = test system: EKVX NSCLC
IGROV1 ovarian = test system: IGROV1 ovarian
HOP-62 NSCLC = test system: HOP-62 NSCLC
K-562 leukemia = test system: K-562 leukemia
COLO 205 colon = test system: COLO 205 colon
SK-MEL-2 melanoma = test system: SK-MEL-2 melanoma

## CCC[CH2][Sn]([CH2]CCC)([O]C(=O)c1ccc(OC)c(OC)c1OC)[O][Sn]([CH2]CCC)([CH2]CCC)[O]C(=O)c1ccc(OC)c(OC)c1OC
ACHN renal
  GI50: 259 nM
  TGI: 583 nM
TK-10 renal
  GI50: 306 nM
  TGI: 716 nM
NCI/ADR-RES ovarian
  GI50: 843 nM
  TGI: 2140 nM
MALME-3M melanoma
  GI50: 168 nM
  TGI: 757 nM
EKVX NSCLC
  GI50: 1390 nM
  TGI: 2760 nM
IGROV1 ovarian
  GI50: 891 nM
  TGI: 2470 nM
HOP-62 NSCLC
  GI50: 1610 nM
  TGI: 2980 nM
K-562 leukemia
  GI50: 41.6 nM
  TGI: 1860 nM
COLO 205 colon
  GI50: 270 nM
  TGI: 917 nM
SK-MEL-2 melanoma
  GI50: 160 nM
  TGI: 480 nM

Reference: PubChem BioAssay (NCI)
